Like-named read-outs stand apart in the source and are kept apart here.
Legend:
red blood cells [1] = conditions: cited from earlier work
red blood cells [2] = conditions: cited from earlier work; remark: listed apart in the source
[3] = system: FK-506 binding protein (FKBP); conditions: cited from earlier work
[4] = system: peripheral blood mononuclear cells and erythrocytes; conditions: cited from earlier work
T-lymphocytes = conditions: cited from earlier work
[5] = system: transplanted tissue or organ; conditions: parenteral administration to donor before transplant; cited from earlier work
[6] = Equilibrium of rapamycin between formed blood elements (FBE), whole blood and plasma in rat blood; format: in vitro ADME; conditions: for Kp: formed blood elements, read-out: FBE to plasma ratio
Description: In human blood, erythrocytes comprise about 85 to 90 percent of the formed blood elements (microscopically visible). Human whole blood is comprised of about 46% formed blood elements and 54% plasma. Equilibrium of rapamycin between the rapamycin-loaded formed blood elements (FBE) and the plasma is quickly established and is seen to be species dependent. In rat blood containing rapamycin at a concentration of 38 ng/ml, the whole blood and FBE to plasma ratios were 1.3 and 1.7 respectively and at a concentration of 200 ng/ml the ratios were 0.8 and 0.5 respectively.

[7] = Equilibrium of rapamycin between formed blood elements (FBE), whole blood and plasma in human blood; format: in vitro ADME; conditions: for Kp: formed blood elements, read-out: FBE to plasma ratio
Description: (§1) In human blood at rapamycin concentrations between 76 and 189 ng/ml, the whole blood and FBE to plasma ratios after 30 minutes incubation at 37° C. were 12±2 and 23.7±3.9 respectively. Similarly, at a concentration of 482 ng/ml, the ratios were 1.1 and 1.3 respectively. The ratios of whole blood to plasma concentrations in monkeys receiving rapamycin was 10±6 and in humans the ratio was 12±2, and indication that a species difference exists between primates and other mammals.

[8] = Whole blood to plasma concentration ratio in monkeys receiving rapamycin; format: in vivo; conditions: monkey, read-out: ratio of whole blood to plasma concentrations
Description: as §1

[9] = Whole blood to plasma concentration ratio in humans receiving rapamycin; format: in vivo; conditions: human, read-out: ratio of whole blood to plasma concentrations
Description: as §1

FKBP = assay: Binding of rapamycin to FKBP in formed blood elements (erythrocytes)
erythrocytes = assay: Hemolysis by rapamycin; format: cell-based
graft rejection = conditions: donor pretreatment intravenously, rats; cited from earlier work
[10] = system: experimental allergic encephalomyolitis; conditions: rats; cited from earlier work
adjuvant arthritis = conditions: rats; cited from earlier work
[11] = system: humoral (IgE-like) antibodies; conditions: rats, albumin allergic challenge; cited from earlier work
mouse T-cells = conditions: combination with Cyclosporin A; ionomycin + PMA stimulation; cited from earlier work
[12] = system: restenosis (smooth muscle cell proliferation and internal thickening following vascular injury); conditions: cited from earlier work
[13] = system: lymphatic leukemia, colon and mammary cancers, melanocarcinoma and ependymoblastoma; conditions: cited from earlier work
transplant rejection = conditions: cited from earlier work
[14] = rapamycin 76 to 189 ng/ml, 30 minutes incubation at 37° C.

In the case of `C[C@@H]1[C@H](O)[C@@H](C)/C=C/C=C/C=C/C=C/C=C/C=C/C=C/[C@H](O[C@@H]2O[C@H](C)[C@@H](O)[C@H](N)[C@@H]2O)C[C@@H]2O[C@](O)(C[C@@H](O)C[C@@H](O)[C@H](O)CC[C@@H](O)C[C@@H](O)CC(=O)O[C@H]1C)C[C@H](O)[C@H]2C(=O)O` [Amphotericin B], the “effect on sterols and cell membranes” value (red blood cells [1]) is listed as “binds to sterols and perforates cell membranes”.
For `COc1cccc2c1C(=O)c1c(O)c3c(c(O)c1C2=O)C[C@@](O)(C(C)=O)C[C@@H]3O[C@H]1C[C@H](N)[C@H](O)[C@H](C)O1` [Daunomycin], the “binding to red blood cells” value (red blood cells [2]; red blood cells first treated with Amphotericin B) is listed as “will bind daunomycin” and the “binding to red blood cells” value (red blood cells [2]; untreated red blood cells) is listed as “will not bind to red blood cells”.
For `C=CC[C@@H]1/C=C(\C)C[C@H](C)C[C@H](OC)[C@H]2O[C@@](O)(C(=O)C(=O)N3CCCC[C@H]3C(=O)O[C@H](/C(C)=C/[C@@H]3CC[C@@H](O)[C@H](OC)C3)[C@H](C)[C@@H](O)CC1=O)[C@H](C)C[C@@H]2OC` [FK-506], the “binding with FKBP in the erythrocytes” value [3] is given as “bind reversibly”, the “absorption and retention by peripheral blood mononuclear cells and erythrocytes” value [4] is given as “absorbed and retained” and the “activation of T-lymphocytes” value (T-lymphocytes) is given as “inhibits the activation of T-lymphocytes”. The “rejection of the transplanted tissue or organ” value [5] was “reduce rejection of the transplanted tissue or organ”.
For `O=P1(N(CCCl)CCCl)NCCCO1` (centres unmarked) [cyclophosphamide], the “rejection of the transplanted tissue or organ” value [5] is given as “reduce rejection of the transplanted tissue or organ”.
Compound `CO[C@H]1C[C@@H]2CC[C@@H](C)[C@@](O)(O2)C(=O)C(=O)N2CCCC[C@H]2C(=O)O[C@H]([C@H](C)C[C@@H]2CC[C@@H](O)[C@H](OC)C2)CC(=O)[C@H](C)/C=C(\C)[C@@H](O)[C@@H](OC)C(=O)[C@H](C)C[C@H](C)/C=C/C=C/C=C/1C` [rapamycin] has a blood plasma ratio ([6]; rapamycin 38 ng/ml) of 1.3, a blood plasma ratio ([6]; rapamycin 200 ng/ml) of 0.8 and a Kp ([6]; rapamycin 38 ng/ml) of 1.7. The Kp ([6]; rapamycin 200 ng/ml) was 0.5, the blood plasma ratio ([7]; rapamycin 482 ng/ml) was 1.1 and the blood plasma ratio [7, 14] was 12 ± 2. For the same compound, the Kp ([7]; rapamycin 482 ng/ml) was 1.3, the Kp [7, 14] was 23.7 ± 3.9 and the blood plasma ratio [8] was 10 ± 6. For the same compound, the blood plasma ratio [9] was 12 ± 2, the “binding with FKBP in formed blood elements (erythrocytes)” value (FKBP) was “bind reversibly with the binding protein FKBP” and the hemolysis (erythrocytes) was “does not cause hemolysis”. The “rejection of the transplanted tissue or organ” value [5] was “reduce rejection of the transplanted tissue or organ”, the graft rejection (graft rejection) was “reduce graft rejection” and the “immune response in experimental allergic encephalomyolitis” value [10] was “inhibits the immune response”. For the same compound, the “immune response in adjuvant arthritis” value (adjuvant arthritis) was “inhibits the immune response”, the “humoral (IgE-like) antibodies” value [11] was “prevents humoral (IgE-like) antibodies” and the “suppressive activity of Cyclosporin A in T-cell proliferation, IL-2 production and IL-2R expression” value (mouse T-cells) was “potentiates the suppressive activity of Cyclosporin A”. For the same compound, the restenosis [12] was “inhibits restenosis”, the antitumor activity [13] was “antitumor activity” and the transplant rejection (transplant rejection) was “inhibition of transplant rejection”.
For `CC1\C=C/C=C\C=C\C=C\C=C\C=C\C=C\C(OC2OC(C)C(O)C(N)C2O)CC2OC(O)(CC(O)CC(O)CC(O)CC(O)CC(=O)CC(O)CC(=O)OC1C(C)CCC(O)CC(=O)c1ccc(N)cc1)CC(O)C2C(=O)O` (centres unmarked) [vacidin A], the “binding with red blood cells and hemolysis” value (red blood cells [1]) is listed as “bind with red blood cells and cause hemolysis to occur”.
For cyclosporin A, the “rejection of the transplanted tissue or organ” value [5] is listed as “reduce rejection of the transplanted tissue or organ”.
For methylprednisone, the “rejection of the transplanted tissue or organ” value [5] is given as “reduce rejection of the transplanted tissue or organ”.
